# Assay results as given in PMC3871636 (PLoS ONE, 2013).
# Assays:
# [1] = biological target: CYP3A4 (C377/C468 mutant) (Homo sapiens, UniProt P08684, form not given/S18F); test: Ligand-induced spin shift, absorbance titration; format: binding; details: human, purified CYP3A4(C377/C468) mutant protein, pH 7.4
# Experimental: (§1) All absorbance and fluorescence assays (including the time-resolved fluorescence measurements) were performed at a protein concentration ≤1 µM at 25°C with continuous stirring. Absorbance spectra were recorded with an S2000 rapid scanning CCD spectrometer (Ocean Optics). Ligand binding assays were done in 100 mM Na-Hepes buffer, pH 7.4, containing 0.5 mM EDTA.
# (§2) Absorbance spectra obtained in titration experiments were analyzed with a principal component analysis (PCA) procedure complemented with least-square approximation of the principal vectors with a combination of the prototypical spectra of the CYP3A4 low-spin, high-spin and Type II-substrate-bound ferric CYP3A4 P450 states as described, [31].
# (§3) When fitting the results of titration experiments, where the changes in the monitored signal A S (fraction of the enzyme in the high-spin state, intensity or the lifetime of the donor phosphorescence at a given substrate concentration) were assumed to be proportional to [ES], this equation was complemented with the offset A 0 and the scaling factor A max to yield the following relationship: [drawing 5] (Eq.5)
# [2] = biological target: CYP3A4 (C64/C468 mutant) (Homo sapiens, UniProt P08684, form not given/S18F); test: Ligand-induced spin shift, absorbance titration; format: binding; details: human, purified CYP3A4(C64/C468) mutant protein, pH 7.4
# Experimental: as §1, §2, §3
# [3] = biological target: CYP3A4 (double-labeled C64/C468-ER/DY) (Homo sapiens, UniProt P08684, form not given/S18F); test: Ligand-induced spin shift, absorbance titration; format: binding; details: human, purified double-labeled CYP3A4 C64/C468-ER/DY protein, pH 7.4
# Experimental: as §1, §2, §3
# [4] = biological target: CYP3A4 (double-labeled (C64/C468)-DY/ER) (Homo sapiens, UniProt P08684, form not given/S18F); test: Steady-state LRET titration (delayed emission); format: binding; details: human, purified double-labeled CYP3A4 C64/C468-DY/ER protein, pH 7.4
# Experimental: as §1
# (§4) Fluorescence-based ligand binding assays were done under anaerobic conditions. Anaerobiosis was achieved using an oxygen-scavenging system consisting of protecatechuate-3,4-dioxygenase (0.5 units/ml) and 5 mM protocatechuic acid. The steady state and time-resolved phosphorescence measurements were performed with the use of a Cary Eclipse fluorescence spectrophotometer (Varian/Agilent Technologies). The excitation wavelength was set to 540 nm. Spectra were taken from 650 to 860 nm with 100 µs delay.
# (§5) Quantitative interpretation of LRET results was also based on the use of PCA applied to a series of emission spectra normalized on integral intensity. […] Intensity of the donor and acceptor fluorescence obtained in this way were used in determination of the efficiency of steady-state LRET using the equation [drawing 1] (Eq.1) where I ad is emission intensity of the acceptor, I da is the residual donor emission in the presence of acceptor (I da), Φ a and Φ d are the quantum yield of the fluorescence of acceptor and the quantum yield of the phosphorescence of donor, respectively.
# (§6) Distances were calculated using the equation: [drawing 3] (Eq.3) where R 0 is the Förster distance, and R is the distance between the donor and acceptor. R 0 was calculated with the use of PhotoChemCad software. In these calculations, we used the values of the orientation factor (κ^2) and the refractive index (n) of 0.667 and 1.4, respectively.
# as §3
# [5] = biological target: CYP3A4 (double-labeled (C64/C468)-ER/DY) (Homo sapiens, UniProt P08684, form not given/S18F); test: Steady-state LRET titration (delayed emission); format: binding; details: human, purified double-labeled CYP3A4 C64/C468-ER/DY protein, pH 7.4
# Experimental: as §1, §4, §5, §6, §3
# [6] = biological target: T1, double-labeled CYP3A4 (C64/C468)-DY/ER (Homo sapiens, UniProt P08684, S18F, form not given); test: Steady-state LRET titration (delayed emission); format: binding
# Experimental: as §1, §4, §5, §6, §3
# [7] = biological target: T2, double-labeled CYP3A4 (C64/C468)-ER/DY (Homo sapiens, UniProt P08684, S18F, form not given); test: Steady-state LRET titration (delayed emission); format: binding
# Experimental: as §1, §4, §5, §6, §3
# [8] = biological target: T3, double-labeled CYP3A4 C377/C468-DY/ER (Homo sapiens, UniProt P08684, S18F, form not given); test: Steady-state LRET titration (delayed emission); format: binding; details: Table S2; protein C377/C468-ER/DY; same ligand concentrations
# Experimental: as §1, §4, §5, §6, §3
# [9] = biological target: T4, double-labeled CYP3A4 C64/C121-DY/ER (Homo sapiens, UniProt P08684, A121C/C239S/C377S/C468A/C98S/S18F); test: Steady-state LRET titration (delayed emission); details: Table S2; protein C64/C121-ER/DY; same ligand concentrations
# Experimental: as §1, §4, §5, §6, §3
# [10] = biological target: T1, double-labeled CYP3A4 (C64/C468)-DY/ER; test: Time-resolved LRET (phosphorescence lifetime measurements)
# From the text: (§7) The excitation wavelength was set to 540 nm.
# [11] = biological target: T2, double-labeled CYP3A4 (C64/C468)-ER/DY; test: as above
# From the text: as §7
# [12] = biological target: T3, double-labeled CYP3A4 C377/C468-DY/ER; test: as above
# From the text: as §7
# [13] = biological target: T4, double-labeled CYP3A4 C64/C121-DY/ER; test: as above
# Experimental: as §1, §4
# The treatment of the time-resolved decay traces was performed using a bi-exponential approximation. The efficiency of time-resolved LRET was calculated using the equation [drawing 2] (Eq.2)
# In this equation τda and τd designate the average lifetime of the excited state of the donor in the presence and absence of the acceptor, respectively. These average lifetimes are determined as τ = α1τ1+α2τ2, where τ1,2 and α1,2 stay for the lifetime and the relative amplitude of each of the two exponential terms. In our calculations of the lifetime in double-labeled C64/C468, C377/C468 and C64/C121 proteins we used the lifetimes of phosphorescence measured with the respective proteins labeled with ERIA at a label:protein ratio 2∶1 as the estimates of τd.
# as §6
# [14] = Table S2, C64/C468-DY/ER, same ligand concentrations
# [15] = Table S2, C64/C468-ER/DY, same ligand concentrations
# [16] = Table S1, (C64/C468)-DY/ER, same ligand concentrations
# [17] = Table S1, (C64/C468)-ER/DY, same ligand concentrations
# [18] = Table S1, protein (C377/C468)-ER/DY, same ligand concentrations
# [19] = Table S2, protein C377/C468-ER/DY, same ligand concentrations
# [20] = Table S1, protein (C64/C121)-ER/DY, same ligand concentrations
# [21] = Table S2, protein C64/C121-ER/DY, same ligand concentrations
# T1 sequence (P08684 13-503 S18F, form open): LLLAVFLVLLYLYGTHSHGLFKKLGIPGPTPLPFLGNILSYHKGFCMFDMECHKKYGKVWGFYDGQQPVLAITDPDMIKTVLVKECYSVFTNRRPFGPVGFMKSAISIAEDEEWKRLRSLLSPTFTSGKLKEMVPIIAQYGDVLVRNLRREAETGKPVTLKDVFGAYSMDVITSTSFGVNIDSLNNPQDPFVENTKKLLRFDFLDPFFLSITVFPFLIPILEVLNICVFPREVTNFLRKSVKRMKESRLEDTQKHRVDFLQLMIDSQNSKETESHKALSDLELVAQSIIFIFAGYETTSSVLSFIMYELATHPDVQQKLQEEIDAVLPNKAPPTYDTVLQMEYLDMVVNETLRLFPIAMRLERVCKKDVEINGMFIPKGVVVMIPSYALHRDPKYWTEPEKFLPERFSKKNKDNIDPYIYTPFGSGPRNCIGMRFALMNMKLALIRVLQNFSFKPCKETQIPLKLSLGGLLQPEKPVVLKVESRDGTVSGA
# T2 sequence (P08684 13-503 S18F, form open): as above
# T3 sequence (P08684 13-503 S18F, form open): as above
# T4 sequence (P08684 with tags, fused parts or gaps S18F/C98S/A121C/C239S/C377S/C468A limits assumed): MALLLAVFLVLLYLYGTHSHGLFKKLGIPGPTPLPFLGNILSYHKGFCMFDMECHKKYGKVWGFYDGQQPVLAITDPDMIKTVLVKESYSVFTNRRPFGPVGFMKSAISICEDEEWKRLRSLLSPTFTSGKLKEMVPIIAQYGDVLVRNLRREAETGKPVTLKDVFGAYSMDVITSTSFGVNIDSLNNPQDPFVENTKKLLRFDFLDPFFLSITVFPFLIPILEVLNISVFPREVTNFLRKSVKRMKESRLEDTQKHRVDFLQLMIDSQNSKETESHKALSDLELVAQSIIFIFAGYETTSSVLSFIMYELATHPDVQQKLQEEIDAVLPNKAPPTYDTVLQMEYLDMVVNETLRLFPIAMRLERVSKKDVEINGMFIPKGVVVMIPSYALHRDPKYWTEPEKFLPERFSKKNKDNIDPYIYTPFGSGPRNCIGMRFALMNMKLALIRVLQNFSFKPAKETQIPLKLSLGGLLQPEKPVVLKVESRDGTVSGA
# Chain of CYP3A4 (C64/C468 mutant) (P08684 13-503 S18F, form open): as the sequence (P08684 13-503 S18F, form open) above
# Chain of CYP3A4 (double-labeled (C64/C468)-DY/ER) (P08684 13-503 S18F, form open): as above
# Chain of CYP3A4 (double-labeled (C64/C468)-ER/DY) (P08684 13-503 S18F, form open): as above
# Chain of CYP3A4 (C377/C468 mutant) (P08684 13-503 S18F, form open): as above
# Chain of CYP3A4 (double-labeled C64/C468-ER/DY) (P08684 13-503 S18F, form open): as above
smiles,measurement,setting,value
"C[C@]12CC[C@H]3[C@@H](CCC4=CC(=O)CC[C@@]43C)[C@@H]1CC[C@@H]2O [Testosterone, testosterone]",Kd,[1],51 ± 8 µM
same,Kd,[2],39 ± 10 µM
same,Kd,[3],38 ± 6 µM
same,Kd,[4],16.4 ± 3.5 µM
same,Kd,[5],22.8 ± 3.6 µM
same,"ΔR (change in interprobe distance), steady-state fluorescence",[6]; (C64/C468)-DY/ER,5.5±1.9 Å
same,"R (interprobe distance with ligand), steady-state measurements",[6]; [14],40.4 ± 1.9 Å
same,"ΔR, steady-state measurements",[6]; [14],5.5 ± 1.9 Å
same,"ΔR (change in interprobe distance), steady-state fluorescence",[7]; (C64/C468)-ER/DY,3.1±1.0 Å
same,"R (interprobe distance with ligand), steady-state measurements",[7]; [15],42.2 ± 1.0 Å
same,"ΔR, steady-state measurements",[7]; [15],3.1 ± 1.0 Å
same,"R (interprobe distance with ligand), steady-state measurements",[8],46.7 ± 0.7 Å
same,"ΔR, steady-state measurements",[8],2.0 ± 0.7 Å
same,"R (interprobe distance with ligand), steady-state measurements",[9],43.9 ± 0.5 Å
same,"ΔR, steady-state measurements",[9],1.3 ± 0.5 Å
same,τ1 (phosphorescence decay time with ligand),"[10]; Table S1, (C64/C468)-DY/ER, 1-PB 40 µM, ANF 100 µM, BCT 2.5 µM, cholesterol 100 µM, testosterone 100 µM, bi-exponential fit",69 ± 1 µs
same,F1 (fraction of first exponential),[10]; [16],39 ± 8%
same,τ2 (phosphorescence decay time with ligand),[10]; [16],247 ± 2 µs
same,τav (average phosphorescence lifetime with ligand),[10]; [16],176 ± 2 µs
same,"R (interprobe distance with ligand), lifetime measurements",[10]; [14],41.6 ± 0.3 Å
same,"ΔR, lifetime measurements",[10]; [14],4.8 ± 0.3 Å
same,"ΔR (change in interprobe distance), lifetime measurements","[11]; (C64/C468)-ER/DY, nearly-saturating ligand: ANF 100 µM, bromocriptine 2.5 µM, cholesterol 50 µM, testosterone 100 µM",4.5±0.5 Å
same,τ1 (phosphorescence decay time with ligand),"[11]; Table S1, (C64/C468)-ER/DY, 1-PB 40 µM, ANF 100 µM, BCT 2.5 µM, cholesterol 100 µM, testosterone 100 µM, bi-exponential fit",67 ± 6 µs
same,F1 (fraction of first exponential),[11]; [17],48 ± 2%
same,τ2 (phosphorescence decay time with ligand),[11]; [17],267 ± 11 µs
same,τav (average phosphorescence lifetime with ligand),[11]; [17],171 ± 4 µs
same,"R (interprobe distance with ligand), lifetime measurements",[11]; [15],40.8 ± 0.6 Å
same,"ΔR, lifetime measurements",[11]; [15],4.5 ± 0.6 Å
same,τ1 (phosphorescence decay time with ligand),"[12]; Table S1, protein (C377/C468)-ER/DY, 1-PB 40 µM, ANF 100 µM, BCT 2.5 µM, cholesterol 100 µM, testosterone 100 µM, bi-exponential fit",42 ± 9 µs
same,F1 (fraction of first exponential),[12]; [18],26 ± 7%
same,τ2 (phosphorescence decay time with ligand),[12]; [18],193 ± 5 µs
same,τav (average phosphorescence lifetime with ligand),[12]; [18],152 ± 12 µs
same,"R (interprobe distance with ligand), lifetime measurements",[12]; [19],45.3 ± 3.0 Å
same,"ΔR, lifetime measurements",[12]; [19],8.5 ± 3.0 Å
same,τ1 (phosphorescence decay time with ligand),"[13]; Table S1, protein (C64/C121)-ER/DY, 1-PB 40 µM, ANF 100 µM, BCT 2.5 µM, cholesterol 100 µM, testosterone 100 µM, bi-exponential fit",66 ± 9 µs
same,F1 (fraction of first exponential),[13]; [20],38 ± 4%
same,τ2 (phosphorescence decay time with ligand),[13]; [20],228 ± 23 µs
same,τav (average phosphorescence lifetime with ligand),[13]; [20],165 ± 9 µs
same,"R (interprobe distance with ligand), lifetime measurements",[13]; [21],36.9 ± 0.7 Å
same,"ΔR, lifetime measurements",[13]; [21],1.9 ± 0.7 Å
